The values below come from paper PMC12472512, “Design, Synthesis, In Silico Docking, Multitarget Bioevaluation and Molecular Dynamic Simulation of Novel Pyrazolo[3,4-d]Pyrimidinone Derivatives as Potential In Vitro and In Vivo Anti-Inflammatory Agents” (Pharmaceuticals, 2025).

For data set [1], the system named is TNF-α. In words: ELISA of serum TNF-α in carrageenan-treated mice. The format is in vivo. The settings on record: 50 mg/kg; carrageenan-treated mice at 3 h; compared to the control group. How it is done:
To evaluate the anti-inflammatory mechanisms of these compounds, two key chemical mediators, TNF-α and IL-6, were assessed using enzyme-linked immunosorbent assay (ELISA).
(§1) All mice were sacrificed under anesthesia using ketamine/xylazine (50/15 mg/kg). Blood was collected for the ELISA assays to determine the levels of cytokines TNF-α and IL-6 using the Rat IL6 (Interleukin 6) ELISA Kit and Rat TNFα ELISA Kit (MyBioSource, San Diego, CA, USA), in accordance with the manufacturer’s instructions. The quantitative sandwich enzyme immunoassay technique is the fundamental principle of the TNF-α assay. A microplate was pre-coated with an antibody specific for TNF-α. Standards and samples were pipetted into the wells, and the immobilized antibody bound to any TNF-α that was present. A biotin-conjugated antibody that was specific for TNF-α was introduced to the wells after any unbound substances were removed. Horseradish peroxidase (HRP) conjugated with avidin was introduced to the wells subsequent to the cleaning process. After a wash to eliminate any unbound avidin–enzyme reagent, a substrate solution was introduced to the wells, and the color developed in proportion to the quantity of TNF-α bound in the initial step. The color development was halted, and the color intensity was quantified. Additionally, the Sandwich enzyme immunoassay is the test principle utilized for IL-6. The microtiter plates included in this preparation were pre-coated with an antibody that was specific to Rat IL6. A biotin-conjugated antibody specific to Rat IL6 was then added to the appropriate microtiter plate wells along with standards or samples. Subsequently, each microplate well was incubated with avidin conjugated to horseradish peroxidase (HRP). […] The addition of sulfuric acid solution terminated the enzyme–substrate reaction, and the color change was observed spectrophotometrically at a wavelength of 450 nm ± 10 nm. The concentration of Rat IL6 in the samples was subsequently determined by comparing the OD of the samples to the standard curve.
Blood was collected immediately following the decapitation of mice, performed in accordance with the institutional animal care and use committee (IACUC) guidelines. After decapitation, whole blood was allowed to flow freely and was collected directly into EDTA and heparinized tubes. The whole blood was centrifuged at 3000× g for 10 min at 4 °C, and the plasma was carefully collected and stored at –80 °C until further analysis.

Data set [2] concerns IL-6. In words: ELISA of serum IL-6 in carrageenan-treated mice. The settings on record: 50 mg/kg; carrageenan-treated mice at 3 h. In kind it is in vivo. How it is done:
Therefore, the anti-inflammatory activity of the tested compounds may hinge on their ability to suppress the pro-inflammatory TNF-α and IL-6 levels.
as §1, with “curve. […]” for “curve.”
Background: ELISA stands for enzyme-linked immunosorbent assay.

The subject of data set [3] is carrageenan-induced paw edema. In words: In vivo carrageenan-induced paw edema. The settings on record: 50 mg/kg oral, mice.
Data set [4] has as its system gastric mucosa. In words: Histopathological examination of stomach sections (H&E).
Data set [5] addresses T1, COX-1 (Ovis aries, UniProt P05979).
T1 sequence (P05979 25-600): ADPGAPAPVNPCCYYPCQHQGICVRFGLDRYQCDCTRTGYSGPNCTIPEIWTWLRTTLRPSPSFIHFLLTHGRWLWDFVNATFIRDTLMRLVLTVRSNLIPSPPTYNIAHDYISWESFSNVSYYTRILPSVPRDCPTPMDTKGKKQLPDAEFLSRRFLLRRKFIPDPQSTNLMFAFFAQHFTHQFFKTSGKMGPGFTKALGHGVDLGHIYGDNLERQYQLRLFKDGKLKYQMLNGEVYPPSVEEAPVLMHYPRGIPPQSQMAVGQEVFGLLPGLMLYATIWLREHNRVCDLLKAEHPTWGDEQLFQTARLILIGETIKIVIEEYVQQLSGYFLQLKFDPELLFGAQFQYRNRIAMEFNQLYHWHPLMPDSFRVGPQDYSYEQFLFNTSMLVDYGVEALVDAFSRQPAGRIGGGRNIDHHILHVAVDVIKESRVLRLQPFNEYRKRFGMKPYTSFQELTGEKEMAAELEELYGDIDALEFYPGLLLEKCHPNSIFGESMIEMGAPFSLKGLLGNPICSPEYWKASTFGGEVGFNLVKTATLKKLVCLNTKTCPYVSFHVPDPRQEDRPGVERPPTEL
Put plainly: In vitro COX-1 inhibition, fluorescent inhibitor screening assay kit.
Method: (§2) Test compounds, dissolved in DMSO, and were pre-incubated with the enzymes at 37 °C for 5 min before initiating the reaction with 1 mM arachidonic acid under light-protected conditions. The fluorescence was measured using a multi-well spectrophotometer (fluorescence plate reader). […] The percentage inhibition was calculated by comparing the absorbance values of the compounds to the vehicle control.
(§3) This protocol utilizes a colorimetric assay to measure the peroxidase activity of Prostaglandin G/H
(§4) Synthase (COX enzyme). The COX enzyme converts Arachidonic Acid (AA) to Prostaglandin G2
(§5) (PGG2), which is then reduced to Prostaglandin H2 (PGH2) by the inherent peroxidase activity.
(§6) peroxidase reaction co-oxidizes a chromogen, such as N,N,N',N'-Tetramethyl-p-phenylenediamine
(§7) (TMPD), resulting in a colored product that can be measured spectrophotometrically at 590-630 nm.
(§8) inhibition of COX enzyme by a test compound reduces the formation of this colored product, allowing
(§9) for the calculation of percentage inhibition and subsequent IC50 values.
(§10) o Ovine COX-1 (purified, commercially available)
(§11) • Substrate: Arachidonic Acid (AA). Prepare a stock solution in ethanol. Note: AA is unstable;
(§12) aliquot and store under inert gas (e.g., Argon) at -80°C.
(§13) • Cofactor: Hemin. Prepare a stock solution in DMSO.
(§14) • Chromogen: N,N,N',N'-Tetramethyl-p-phenylenediamine (TMPD) dihydrochloride.
(§15) • Assay Buffer: 100 mM Tris-HCl buffer, pH 8.0. May contain 1-5 mM EDTA and 1-2 µM
Phenol (acts as a cofactor for COX-2).
(§16) • Solvents: Dimethyl Sulfoxide (DMSO), Ethanol (absolute).
(§17) consistent across all wells (typically ≤1% final concentration).
o Keep all dilutions on ice.
(§18) o COX-1 Working Solution: Dilute ovine COX-1 in ice-cold assay buffer to a final
(§19) concentration of ~50-100 U/mL. Add Hemin to a final concentration of 1 µM.
(§20) o Note: The exact enzyme units (U) required must be determined by a preliminary activity
(§21) test to ensure the reaction is linear and within the dynamic range of the assay.
(§22) Substrate/Chromogen Solution (Prepare Fresh):
(§23) o To a tube containing assay buffer, add TMPD to a final concentration of 0.2-0.5 mM.
(§24) o Add Arachidonic Acid to a final concentration of 100 µM. Vortex gently.
(§25) o Keep this solution protected from light and on ice until use.
(§26) Assay Setup (Performed in duplicate or triplicate)

The target of data set [6] is T2, human recombinant COX-2 (Homo sapiens, UniProt P35354).
T2 sequence (P35354 18-604): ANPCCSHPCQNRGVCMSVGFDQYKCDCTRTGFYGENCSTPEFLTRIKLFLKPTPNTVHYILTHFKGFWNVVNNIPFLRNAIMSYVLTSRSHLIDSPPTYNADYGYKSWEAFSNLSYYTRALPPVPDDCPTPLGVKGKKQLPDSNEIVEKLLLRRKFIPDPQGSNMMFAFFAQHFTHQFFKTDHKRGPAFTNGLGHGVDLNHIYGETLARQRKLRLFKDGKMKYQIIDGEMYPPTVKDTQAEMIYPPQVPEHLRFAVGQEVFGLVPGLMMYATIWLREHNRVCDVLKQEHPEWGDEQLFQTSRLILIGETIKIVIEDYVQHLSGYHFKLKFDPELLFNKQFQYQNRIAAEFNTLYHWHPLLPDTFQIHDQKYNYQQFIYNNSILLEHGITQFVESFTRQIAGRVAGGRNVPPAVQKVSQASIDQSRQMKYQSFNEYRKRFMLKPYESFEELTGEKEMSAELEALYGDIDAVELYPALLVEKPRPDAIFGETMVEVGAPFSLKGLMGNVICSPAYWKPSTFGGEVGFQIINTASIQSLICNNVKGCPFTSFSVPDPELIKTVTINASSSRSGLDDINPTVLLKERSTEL
In words: In vitro COX-2 inhibition, fluorescent inhibitor screening assay kit.
Method: as §2, §3, §4, §5, §6, §7, §8, §9, §10, §11, §12, §13, §14, §15
Phenol (acts as a cofactor for COX-2).
as §16, §17
o Keep all dilutions on ice.
as §18, §19, §20, §21, §22, §23, §24, §25, §26

Data set [7] relates to COX-2. Set-up: method as in PMID 19479756. The conditions noted are these: cited from earlier work.
Where [8] appears, read: stomach sections stained with H&E, 50 mg/kg.

“And” between values parts separate entries of the source, which are not always exact repeats. Equal entries are not always repeated. “Also recorded” adds a separate entry of the source.

As to `O=C(Cn1cnc2c(cnn2-c2ccccc2)c1=O)N(c1ccccc1)c1ccccc1` [Compound 5k, 2-(4-Oxo-1-Phenyl-1,4-Dihydro-5H-Pyrazolo[3,4-d]Pyrimidin-5-yl)-N, N-Diphenyl Acetamide], the “TNF-α levels in serum” value in data set [1] was “significantly reduced”. Besides, the “IL-6 levels in serum” value in data set [2] is on record as “significantly reduced”. In addition, the “Percentage of inhibition of carrageenan-induced paw edema” value amounted to 31.46% in data set [3] (1 h); 44.88% in data set [3] (2 h); 54.89% in data set [3] (3 h, 50 mg/kg). The “histological structure of the gastric mucosa” value (shortened to “histological structure”) in data set [4] (setting [8]) is “preserved gastric tissue integrity; also recorded: intact gastric tissue; also recorded: normal histological structure of the gastric mucosa”. The IC50 (in general, the concentration that inhibits the measured activity by half) stood at 25.5 ± 0.86 µM in data set [5] and 0.266 ± 0.009 µM in data set [6]. For the same compound, the COX1 %inh in data set [5] (conc 0.01 (uM)) came out at 0.72%; in data set [5] (conc 0.1 (uM)), 5.18%; in data set [5] (conc 1 (uM)), 15%; in data set [5] (conc 10 (uM)) it was 31.4%; in data set [5] (conc 100 (uM)), 74.9%. The “SI, in vitro COX-2 selectivity index (COX-1 IC50/COX-2 IC50)” value in data set [6] was 95.8 and 95.75. In addition, the COX2 %inh in data set [6] (conc 0.01 (uM)) is reported as -394%; in data set [6] (conc 0.1 (uM)), -266%; in data set [6] (conc 1 (uM)), -76%; in data set [6] (conc 10 (uM)) it was 14.6%; in data set [6] (conc 100 (uM)), 67.8%.

For `CS(=O)(=O)Nc1ccc([N+](=O)[O-])cc1OC1CCCCC1` [NS398], in data set [7], the concentration for half-maximal inhibition (IC50) was […].

With `O=C(Nn1cnc2c(cnn2-c2ccccc2)c1=O)c1ccccc1` [Compound I], the concentration for half-maximal inhibition (IC50) in data set [7] was 78.9 µM.

Take `O=C(Cn1cnc2c(cnn2-c2ccccc2)c1=O)Nc1ccc2ccccc2c1` [Compound 5j, N-(Naphthalen-2-yl)-2-(4-Oxo-1-Phenyl-1,4-Dihydro-5H-Pyrazolo[3,4-d]Pyrimidin-5-yl) Acetamide]: in data set [1], the “TNF-α levels in serum” value was “significantly reduced”. Moreover, the “IL-6 levels in serum” value in data set [2] is “significantly reduced; also recorded: highest inhibition of IL-6 levels, approaching normal levels”. Moreover, the “Percentage of inhibition of carrageenan-induced paw edema” value in data set [3] (1 h) was determined as 28.35%; in data set [3] (2 h), 50.13%; in data set [3] (3 h, 50 mg/kg), 62.41%. For the same compound, the “histological structure” value in data set [4] (setting [8]) was “preserved gastric tissue integrity; also recorded: intact gastric tissue; also recorded: normal histological structure of the gastric mucosa”. The IC50 in data set [5] was determined as 6.4 ± 0.22 µM; in data set [6], 0.398 ± 0.014 µM. For the same compound, the COX1 %inh worked out at 1.32% in data set [5] (conc 0.01 (uM)); 7.85% in data set [5] (conc 0.1 (uM)); 19.2% in data set [5] (conc 1 (uM)); 57.9% in data set [5] (conc 10 (uM)); 80.1% in data set [5] (conc 100 (uM)). In addition, in data set [6], the “SI, in vitro COX-2 selectivity index (COX-1 IC50/COX-2 IC50)” value is 16.09. Further, the COX2 %inh in data set [6] (conc 0.01 (uM)) was -425%; in data set [6] (conc 0.1 (uM)) it was -285%; in data set [6] (conc 1 (uM)), -103%; in data set [6] (conc 10 (uM)), 9.91%; in data set [6] (conc 100 (uM)), 54.8%.

`CC(=NO)c1ccc(NC(=O)Cn2cnc3c(cnn3-c3ccccc3)c2=O)cc1` [Compound 5m, N-(4-(1-(Hydroxyimino)Ethyl)Phenyl)-2-(4-Oxo-1-Phenyl-1,4-Dihydro-5H-Pyrazolo[3,4-d]Pyrimidin-5-yl) Acetamide]: in data set [1], the “TNF-α levels in serum” value was “significantly reduced”. Besides, the “IL-6 levels in serum” value in data set [2] is on record as “significantly reduced”. Further, the “Percentage of inhibition of carrageenan-induced paw edema” value in data set [3] (1 h) worked out at 3.43%; in data set [3] (2 h, 50 mg/kg) it was 58.01%; in data set [3] (3 h), 39.85%. In data set [4] (stomach sections stained with H&E; 50 mg/kg), the “histological structure” value is recorded as “normal histological structure of the gastric mucosa”. In addition, the values for the IC50 in data set [5] and in data set [6] were 57.3 ± 1.93 µM and 2.34 ± 0.08 µM, respectively. For the same compound, the COX1 %inh in data set [5] (conc 0.01 (uM)) was determined as 0.27%; in data set [5] (conc 0.1 (uM)) it was 6.51%; in data set [5] (conc 1 (uM)), 12.3%; in data set [5] (conc 10 (uM)) it was 24.6%; in data set [5] (conc 100 (uM)), 69.2%. For the same compound, in data set [6], the “SI, in vitro COX-2 selectivity index (COX-1 IC50/COX-2 IC50)” value is on record as 24.47. Further, the COX2 %inh in data set [6] (conc 0.1 (uM)) is -448%; in data set [6] (conc 1 (uM)), -273%; in data set [6] (conc 10 (uM)), -103%; in data set [6] (conc 100 (uM)), 46.6%.

On to `O=C(NCc1ccccc1)c1nc2c(cnn2-c2ccccc2)c(=O)[nH]1` [II], for which the IC50 in data set [7] is 23.8 µM.
